The source made the active and inactive calls.
Tests used:
[1] = molecular target: T1, RNA-binding protein pos-1 (Caenorhabditis elegans, UniProt G5EF15); test: disruptors of C. elegans POS-1 RNA interaction – biochemical, fluorescence polarization, dose response (AID 1964);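 note: purified POS-1 fused to maltose binding protein made in E. coli; potency of compounds blocking POS-1 binding to fluorescent RNA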
T1 sequence (G5EF15 whole entry): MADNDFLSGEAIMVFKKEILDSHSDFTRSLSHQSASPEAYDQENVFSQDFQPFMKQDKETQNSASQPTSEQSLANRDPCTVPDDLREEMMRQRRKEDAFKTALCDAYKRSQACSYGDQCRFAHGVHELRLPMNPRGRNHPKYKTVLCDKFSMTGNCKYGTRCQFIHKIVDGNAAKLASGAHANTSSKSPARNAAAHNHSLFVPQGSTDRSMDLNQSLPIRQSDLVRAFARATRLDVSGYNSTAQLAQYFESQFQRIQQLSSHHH

[2] = molecular target: T2, Zinc finger protein mex-5 (Caenorhabditis elegans, UniProt Q9XUB2); test: potency of MEX-5 RNA-binding blockers – biochemical, C. elegans, fluorescence polarization, dose response (AID 1960)
T2 sequence (Q9XUB2 whole entry): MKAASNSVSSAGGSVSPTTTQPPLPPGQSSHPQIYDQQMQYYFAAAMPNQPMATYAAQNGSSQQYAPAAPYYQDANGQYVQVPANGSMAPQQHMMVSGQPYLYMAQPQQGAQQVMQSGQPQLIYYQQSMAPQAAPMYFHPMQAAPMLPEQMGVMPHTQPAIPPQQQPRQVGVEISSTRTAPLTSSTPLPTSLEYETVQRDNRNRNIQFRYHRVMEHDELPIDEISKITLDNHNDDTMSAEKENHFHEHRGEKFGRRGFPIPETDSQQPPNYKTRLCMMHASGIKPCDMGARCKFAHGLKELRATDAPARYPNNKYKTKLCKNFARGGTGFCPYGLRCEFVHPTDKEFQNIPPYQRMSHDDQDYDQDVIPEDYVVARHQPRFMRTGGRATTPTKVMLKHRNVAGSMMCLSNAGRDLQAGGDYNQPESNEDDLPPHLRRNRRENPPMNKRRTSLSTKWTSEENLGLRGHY

[3] = molecular target: T3, DNA repair and recombination protein RAD54-like (Homo sapiens, UniProt Q92698); test: RAD54 Holliday junction migration blockers – biochemical, fluorescence, cherry-picked samples, dose series, confirmation (AID 651657); type: functional
T3 sequence (Q92698 whole entry): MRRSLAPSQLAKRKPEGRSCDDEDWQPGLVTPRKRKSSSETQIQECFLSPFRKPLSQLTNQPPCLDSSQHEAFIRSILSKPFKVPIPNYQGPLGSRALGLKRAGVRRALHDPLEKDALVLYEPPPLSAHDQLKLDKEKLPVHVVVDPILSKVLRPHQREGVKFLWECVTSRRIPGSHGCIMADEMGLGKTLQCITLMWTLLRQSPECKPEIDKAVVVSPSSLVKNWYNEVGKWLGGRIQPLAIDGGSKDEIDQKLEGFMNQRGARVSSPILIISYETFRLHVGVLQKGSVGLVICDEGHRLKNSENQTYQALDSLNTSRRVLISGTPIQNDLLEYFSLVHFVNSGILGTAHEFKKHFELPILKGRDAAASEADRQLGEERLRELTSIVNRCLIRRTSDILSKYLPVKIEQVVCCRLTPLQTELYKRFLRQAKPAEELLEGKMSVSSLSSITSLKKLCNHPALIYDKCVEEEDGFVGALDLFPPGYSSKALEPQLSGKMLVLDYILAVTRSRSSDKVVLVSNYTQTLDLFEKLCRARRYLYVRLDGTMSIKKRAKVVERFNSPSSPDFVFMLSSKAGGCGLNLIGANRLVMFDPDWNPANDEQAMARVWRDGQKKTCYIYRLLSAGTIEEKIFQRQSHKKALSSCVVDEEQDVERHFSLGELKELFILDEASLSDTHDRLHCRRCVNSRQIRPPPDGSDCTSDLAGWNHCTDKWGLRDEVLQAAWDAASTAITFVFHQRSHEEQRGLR

[4] = molecular target: Protein Wnt-3a (Mus musculus, UniProt P27467); test: antagonism of Wnt3a pathway luciferase reporter – Wnt-LIGHT cells, luminescence, selectivity assay for Gli-SUFU antagonist project, dose response (AID 651570); type: functional; details: read-out: IC50_Mean;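 note: Wnt-LIGHT reporter cells stimulated with conditioned medium from Wnt3a-producing cells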
[5] = microbe, parasite or virus in culture; type: functional; details: Mycobacterium tuberculosis
[6] = molecular target: T4, Corticotropin-releasing factor receptor 2/Corticotropin-releasing factor-binding protein (Homo sapiens, UniProt P24387+Q13324); test: Dose Response confirmation of uHTS hits for small molecule antagonists of the CRF-binding protein and CRF-R2 receptor complex.; type: functional; details: read-out: IC50_Mean
T4 sequence (Q13324 whole entry): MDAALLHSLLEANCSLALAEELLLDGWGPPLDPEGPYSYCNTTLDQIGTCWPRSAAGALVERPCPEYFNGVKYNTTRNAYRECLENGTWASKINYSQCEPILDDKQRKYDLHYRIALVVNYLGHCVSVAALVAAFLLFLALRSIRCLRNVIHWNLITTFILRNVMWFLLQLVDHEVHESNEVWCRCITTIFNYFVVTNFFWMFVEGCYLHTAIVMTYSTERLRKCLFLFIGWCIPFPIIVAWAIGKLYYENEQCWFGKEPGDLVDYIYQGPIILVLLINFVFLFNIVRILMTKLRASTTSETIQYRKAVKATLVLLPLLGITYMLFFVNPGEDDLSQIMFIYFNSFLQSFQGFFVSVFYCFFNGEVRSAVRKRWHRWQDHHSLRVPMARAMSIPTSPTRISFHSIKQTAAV
T4 sequence (P24387 whole entry): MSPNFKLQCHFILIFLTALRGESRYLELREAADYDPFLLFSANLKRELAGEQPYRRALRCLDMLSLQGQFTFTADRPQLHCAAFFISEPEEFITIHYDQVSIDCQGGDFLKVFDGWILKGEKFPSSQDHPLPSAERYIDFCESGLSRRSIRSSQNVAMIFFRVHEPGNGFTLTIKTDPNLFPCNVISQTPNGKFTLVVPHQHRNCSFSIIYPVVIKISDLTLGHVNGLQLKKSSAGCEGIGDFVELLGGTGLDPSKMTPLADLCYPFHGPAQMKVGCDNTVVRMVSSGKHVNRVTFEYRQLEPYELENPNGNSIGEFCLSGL

[7] = molecular target: T4, Corticotropin-releasing factor receptor 2/Corticotropin-releasing factor-binding protein; test: activators of CRF receptor 2 with binding protein – uHTS hits, confirmation (AID 602473); type: functional; details: read-out: EC50_Mean
[8] = blockers of CRF-binding protein–CRF-R2 complex – cell-based, uHTS hits, 384-well, dose response (AID 651639); type: functional, Homo sapiens; details: read-out: IC50_Mean
[9] = Trypanosoma cruzi growth suppression in host cells – NIH3T3 host cells, beta-gal luminescence, confirmation (AID 2044); type: functional, cell-based;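 note: intracellular parasites grown in NIH/3T3 mouse fibroblasts as host cells; luminescent beta-galactosidase reporter signal from transgenic T. cruzi replicating inside host cells; inhibitors lower the luminescence signal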
[10] = reduction of Shn3 3'UTR-driven luciferase in osteoblasts – cell-based, Clone20 osteoblasts, firefly luciferase, cherry-picked, dose response (AID 624132); type: functional;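 note: firefly luciferase luminescence from reporter carrying the Shn3 3'UTR in osteoblasts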
[11] = loss of viability in HepG2 cells – cell-based, CellTiter-Glo, cherry-picked, cytotoxicity control for Shn3 inhibitor project, dose response (AID 624134); type: functional
[12] = non-specific 3'UTR reporter inhibition in Clone20-Shn3RL – cell-based, Renilla luciferase, cherry-picked, counter-screen for Shn3 inhibitor project, dose response (AID 624133); type: functional
[13] = molecular target: Glucose-6-phosphate 1-dehydrogenase (Homo sapiens, UniProt P11413); test: inhibition of Homo sapiens G6PD, dose series – biochemical, fluorescence, selectivity assay for P. falciparum G6PD inhibitor project, dose response (AID 504792); type: functional
[14] = molecular target: T5, Endoribonuclease toxin MazF (Escherichia coli K-12, UniProt P0AE70); test: activation of MazEF endoribonuclease cleavage – biochemical, fluorescence, single-stranded RNA substrate, uHTS hits, dose response (AID 588481); type: functional
T5 sequence (P0AE70 whole entry): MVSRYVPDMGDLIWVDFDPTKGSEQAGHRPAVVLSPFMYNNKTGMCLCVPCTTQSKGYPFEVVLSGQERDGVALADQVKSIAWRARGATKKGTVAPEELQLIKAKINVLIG

[15] = molecular target: T5, Endoribonuclease toxin MazF; test: substrate-only fluorescence increase artefacts – biochemical, single-stranded RNase substrate, counter-screen for MazEF activator project, dose response (AID 588502); type: functional
[16] = molecular target: Luciferin 4-monooxygenase (Photinus pyralis, UniProt P08659); test: inhibition of purified Photinus pyralis luciferase – biochemical, luminescence, dose response (AID 1891)
[17] = Luminescence Cell-Based Dose Confirmation HTS to Identify Inhibitors of Platelet Dense Granule Release. [Related pubchem assays: 1663 (Primary HTS), 1678 (Summary of Project)]; type: functional

Sequence of Protein Wnt-3a (P27467 whole entry): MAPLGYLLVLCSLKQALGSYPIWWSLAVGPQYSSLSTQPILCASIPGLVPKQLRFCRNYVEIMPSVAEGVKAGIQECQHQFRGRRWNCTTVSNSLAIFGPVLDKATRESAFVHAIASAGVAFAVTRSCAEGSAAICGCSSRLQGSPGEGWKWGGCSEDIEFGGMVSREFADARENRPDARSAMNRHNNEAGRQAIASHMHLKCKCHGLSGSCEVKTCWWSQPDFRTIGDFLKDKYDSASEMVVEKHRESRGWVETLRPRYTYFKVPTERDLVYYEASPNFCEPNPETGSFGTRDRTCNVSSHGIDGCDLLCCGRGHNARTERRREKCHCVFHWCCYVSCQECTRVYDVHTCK
Sequence of Luciferin 4-monooxygenase (P08659 whole entry): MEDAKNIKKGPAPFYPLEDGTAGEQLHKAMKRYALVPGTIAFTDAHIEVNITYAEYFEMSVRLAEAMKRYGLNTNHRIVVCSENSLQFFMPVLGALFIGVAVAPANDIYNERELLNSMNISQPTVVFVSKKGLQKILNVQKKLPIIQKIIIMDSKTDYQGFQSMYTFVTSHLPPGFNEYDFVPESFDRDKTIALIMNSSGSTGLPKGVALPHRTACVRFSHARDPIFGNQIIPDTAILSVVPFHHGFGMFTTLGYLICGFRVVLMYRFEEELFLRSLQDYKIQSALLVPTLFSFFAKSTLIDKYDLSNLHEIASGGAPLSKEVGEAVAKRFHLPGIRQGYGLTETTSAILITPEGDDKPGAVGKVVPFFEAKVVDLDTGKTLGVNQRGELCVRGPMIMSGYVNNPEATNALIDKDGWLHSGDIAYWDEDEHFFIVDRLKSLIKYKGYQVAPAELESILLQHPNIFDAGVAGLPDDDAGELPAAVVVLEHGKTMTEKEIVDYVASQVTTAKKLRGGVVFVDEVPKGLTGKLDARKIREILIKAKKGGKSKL
Sequence of Glucose-6-phosphate 1-dehydrogenase (P11413 whole entry): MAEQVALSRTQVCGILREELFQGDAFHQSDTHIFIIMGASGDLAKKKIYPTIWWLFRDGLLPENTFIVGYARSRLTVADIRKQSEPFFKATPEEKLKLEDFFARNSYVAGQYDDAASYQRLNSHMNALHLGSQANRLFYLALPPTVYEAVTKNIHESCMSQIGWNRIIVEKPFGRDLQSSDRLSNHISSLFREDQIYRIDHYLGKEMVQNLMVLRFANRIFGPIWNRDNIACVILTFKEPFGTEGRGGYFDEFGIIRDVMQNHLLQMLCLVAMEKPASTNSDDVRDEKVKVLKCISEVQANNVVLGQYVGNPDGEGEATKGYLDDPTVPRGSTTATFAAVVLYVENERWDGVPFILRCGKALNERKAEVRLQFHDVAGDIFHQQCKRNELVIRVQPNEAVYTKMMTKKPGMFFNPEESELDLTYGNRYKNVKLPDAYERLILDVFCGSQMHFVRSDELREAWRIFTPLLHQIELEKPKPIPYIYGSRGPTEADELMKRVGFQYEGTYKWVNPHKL

With `COc1ccc(CCNC(=O)c2cc3c(=O)n4cccc(C)c4nc3n(CCCN3CCOCC3)c2=N)cc1` the EC50 [1] was 66.4 µM (active), the EC50 [2] was 192 µM (active) and the AC50 [3] was 16.2 µM (active).

With `FC(F)Oc1ccc(-c2cn3c([n+]2-c2ccccc2)CCCCC3)cc1` the IC50 [4] was 3.83 µM (active).

For `COc1ccc(CCNc2nc(N3CCCCC3)nc(N3CCCCC3)n2)cc1OC`, the CC50 [5] was > 40 µM (active), the IC50 [6] was 7.8 µM (active) and the EC50 [7] was > 53 µM (inactive). The IC50 [8] was > 20 µM (inactive).

In the case of `CC(=O)Nc1ccc(S(=O)(=O)N(Cc2ccccc2)C(C)C)cc1`, the IC50 [4] is reported as 22.1 µM (inactive).

In the case of `Cc1nn(-c2cccc(Cl)c2)c2nc(C(F)(F)F)nc(O)c12`, the IC50 [8] is reported as 17.8 µM (active).

For `O=C(c1cc2nc(-c3ccc(F)cc3)cc(C(F)(F)F)n2n1)N1CCCCC1c1cccnc1` (stereo unspecified), the EC50 [9] was 0.164 µM (active), the CC50 [5] was > 40 µM (active) and the AC50 [10] was 2.37 µM (active). The AC50 [11] was 5.1 µM (active), the AC50 [12] was 2.12 µM (active) and the IC50 [4] was 3.57 µM (active).

With `O=c1[nH]nc(CNc2ccc(O)cc2)c2ccccc12` the EC50 [1] was 11.8 µM (active), the EC50 [2] was 15.3 µM (inconclusive) and the IC50 [13] was > 80 µM (inactive). The EC50 [14] was > 99 µM (inactive) and the EC50 [15] was > 99 µM (inactive).

For `O=C(N=CNOCc1ccc(Cl)cc1Cl)NOCc1c(Cl)cccc1Cl`, the EC50 [16] was > 112 µM (not active), the EC50 [17] was > 112 µM (not active) and the EC50 [14] was > 99 µM (inactive). The EC50 [15] was > 99 µM (inactive).

With `CN1CCN(CCNC(=O)c2cc3c(=O)n(C)c4ccccc4c3n2C)CC1` the AC50 [3] was 35.3 µM (active).
